Experimental data as given in BindingDB's records for doi:10.1021/jm9707838 (Smithkline Beecham, 1998).

Experiments:
[1] = Inhibition of V-ATPase-driven proton transport in membrane vesicles derived from chicken osteoclasts (cOc).
[2] = Inhibition of V-ATPase-driven proton transport in membrane vesicles derived from bovine chromaffin granules (bCG).
[3] = Inhibition of V-ATPase-driven proton transport in membrane vesicles derived from bovine chromaffin granules (bCG)
[4] = Inhibition of V-ATPase-driven proton transport in membrane vesicles derived from chicken osteoclasts (cOc)

With `CO/C1=C\C(C)=C\[C@@H](C)[C@@H](O)[C@@H](C)C/C(C)=C/C=C/[C@H](OC)[C@@H]([C@@H](C)[C@@H](O)[C@H](C)C(=O)O)OC1=O` [(2S,3R,4S)-3-Hydroxy-4-((4E,6E,12E,14Z)-(2R,3S,9S,10S,11R)-10-hydroxy-3,15-dimethoxy-7,9,11,13-tetramethyl-16-oxo-oxacyclohexadeca-4,6,12,14-tetraen-2-yl)-2-methyl-pentanoic acid] the IC50 [1] was > 10 µM and the IC50 [2] was > 10 µM.
With `CO/C1=C\C(C)=C\[C@@H](C)C(=O)[C@@H](C)C/C(C)=C/C=C/[C@H](OC)[C@@H]([C@@H](C)[C@@H](O)[C@H](C)C(=O)O)OC1=O` [(2S,3R,4S)-4-((4E,6E,12E,14Z)-(2R,3S,9S,11R)-3,15-Dimethoxy-7,9,11,13-tetramethyl-10,16-dioxo-oxacyclohexadeca-4,6,12,14-tetraen-2-yl)-3-hydroxy-2-methyl-pentanoic acid] the IC50 [1] was > 10 µM and the IC50 [2] was > 10 µM.
In the case of `CO/C1=C\C(C)=C\[C@@H](C)C(=O)[C@@H](C)C/C(C)=C/C=C/[C@H](OC)[C@@H]([C@@H](C)[C@@H](O)[C@H](C)[C@@]2(O)C[C@@H](C(=O)Oc3ccccc3)[C@H](C)[C@@H](C(C)C)O2)OC1=O` [2-[3-(3,15-Dimethoxy-7,9,11,13-tetramethyl-10,16-dioxo-oxacyclohexadeca-4,6,12,14-tetraen-2-yl)-2-hydroxy-1-methyl-butyl]-2-hydroxy-6-isopropyl-5-methyl-tetrahydro-pyran-4-carboxylic acid phenyl ester], the IC50 [3] is reported as > 10 µM and the IC50 [4] is reported as > 10 µM.
In the case of `COC(=O)[C@@H](C)[C@H](O)[C@H](C)[C@H]1OC(=O)/C(OC)=C/C(C)=C/[C@@H](C)C(=O)[C@@H](C)C/C(C)=C/C=C/[C@@H]1OC` [(2S,3R,4S)-4-((4E,6E,12E,14Z)-(2R,3S,9S,11R)-3,15-Dimethoxy-7,9,11,13-tetramethyl-10,16-dioxo-oxacyclohexadeca-4,6,12,14-tetraen-2-yl)-3-hydroxy-2-methyl-pentanoic acid methyl ester], the IC50 [1] is reported as > 10 µM and the IC50 [2] is reported as > 10 µM.
